# Source: patent US4229204A, “Trifluoromethylphenyl isoxazolyl benzoates” (Monsanto Company, priority 1978, dated 1980)
# What was measured:
# Assay type in all cases: in vivo
# [1] = test system: Downy Brome; assay: Post-emergent herbicidal test; conditions: 4 WAT; further: ranges in brackets are in %
# Experimental: (§1) The post-emergent tests were conducted as follows:
# (§2) The active ingredients are applied in spray form to two or three week old specimens of various plant species. The spray, a solution or wettable powder suspension containing the appropriate rate of active ingredient to give the desired test rate and a surfactant, is applied to the plants.
# (§3) The compounds were also tested by utilizing the above procedure on the following plant species: […]
# [2] = test system: Yellow Nutsedge; assay: Post-emergent herbicidal test; conditions: 4 WAT, 11.2 kg/h; further: ranges in brackets are in %
# Experimental: as §1, §2, §3
# [3] = test system: Morningglory; assay: Post-emergent herbicidal test; conditions: 4 WAT; further: ranges in brackets are in %
# Experimental: as §1, §2, §3
# [4] = test system: Lambsquarters; assay: Post-emergent herbicidal test; conditions: 4 WAT; further: ranges in brackets are in %
# Experimental: as §1, §2, §3
# [5] = test system: Canada Thistle; assay: Post-emergent herbicidal test; conditions: 4 WAT, 11.2 kg/h; further: ranges in brackets are in %
# Experimental: as §1, §2, §3
# [6] = test system: Smartweed; assay: Post-emergent herbicidal test; conditions: 4 WAT; further: ranges in brackets are in %
# Experimental: as §1, §2, §3
# [7] = test system: Johnsongrass; assay: Post-emergent herbicidal test; conditions: 4 WAT, 11.2 kg/h; further: ranges in brackets are in %
# Experimental: as §1, §2, §3
# [8] = test system: Barnyardgrass; assay: Post-emergent herbicidal test; conditions: 4 WAT; further: ranges in brackets are in %
# Experimental: as §1, §2, §3
# [9] = test system: Quackgrass; assay: Post-emergent herbicidal test; conditions: 4 WAT, 11.2 kg/h; further: ranges in brackets are in %
# Experimental: as §1, §2, §3
# [10] = test system: Velvetleaf; assay: Post-emergent herbicidal test; conditions: 4 WAT; further: ranges in brackets are in %
# Experimental: as §1, §2, §3
# [11] = test system: Cocklebur; assay: Post-emergent herbicidal test; conditions: 4 WAT; further: ranges in brackets are in %
# Experimental: as §1, §2, §3
# [12] = test system: Crabgrass; assay: Post-emergent herbicidal test; conditions: 4 WAT; further: ranges in brackets are in %
# Experimental: as §1, §2
# [13] = test system: Sugarbeet; assay: Post-emergent herbicidal test; conditions: 4 WAT; further: ranges in brackets are in %
# Experimental: as §1, §2
# [14] = test system: Soybean; assay: Post-emergent herbicidal test; conditions: 4 WAT; further: ranges in brackets are in %
# Experimental: as §1, §2
# [15] = test system: Wild Buckwheat; assay: Post-emergent herbicidal test; conditions: 4 WAT; further: ranges in brackets are in %
# Experimental: as §1, §2
# [16] = test system: Hemp Sesbania; assay: Post-emergent herbicidal test; conditions: 4 WAT; further: ranges in brackets are in %
# Experimental: as §1, §2
# [17] = test system: Panicum Spp.; assay: Post-emergent herbicidal test; conditions: 4 WAT; further: ranges in brackets are in %
# Experimental: as §1, §2
# [18] = test system: Sorghum; assay: Post-emergent herbicidal test; conditions: 4 WAT; further: ranges in brackets are in %
# Experimental: as §1, §2
# [19] = test system: Wheat; assay: Post-emergent herbicidal test; conditions: 4 WAT; further: ranges in brackets are in %
# Experimental: as §1, §2
# [20] = test system: Rice; assay: Post-emergent herbicidal test; conditions: 4 WAT; further: ranges in brackets are in %
# Experimental: as §1, §2
# [21] = test system: corn; assay: Growth regulation of corn (dipping); conditions: 1330 ppm
# [22] = test system: Downy Brome; assay: Pre-emergent herbicidal test; conditions: 4 WAT; further: ranges in brackets are in %
# Experimental: (§4) The pre-emergent test was conducted as follows:
# (§5) A good grade of top soil was placed in aluminum pans and compacted to a depth of three-eighths to one-half inch from the top of the pan. On the top of the soil was placed a predetermined number of seeds or vegetative propagules of various plant species which were pressed into the soil surface. The soil required to level fill the pans after seeding or adding vegetative propagules was weighed into a pan. A known amount of the active ingredient applied in a solvent or as a wettable powder and the soil were thoroughly mixed, and used as a cover layer for prepared pans.
# (§6) The herbicidal rating was obtained by means of a fixed scale based on the percent injury of each plant species. The ratings are defined as follows: […]
# as §3
# [23] = test system: Yellow Nutsedge; assay: Pre-emergent herbicidal test; conditions: 4 WAT, 11.2 kg/h; further: ranges in brackets are in %
# Experimental: as §4, §5, §6, §3
# [24] = test system: Morningglory; assay: Pre-emergent herbicidal test; conditions: 4 WAT; further: ranges in brackets are in %
# Experimental: as §4, §5, §6, §3
# [25] = test system: Lambsquarters; assay: Pre-emergent herbicidal test; conditions: 4 WAT; further: ranges in brackets are in %
# Experimental: as §4, §5, §6, §3
# [26] = test system: Canada Thistle; assay: Pre-emergent herbicidal test; conditions: 4 WAT, 11.2 kg/h; further: ranges in brackets are in %
# Experimental: as §4, §5, §6, §3
# [27] = test system: Smartweed; assay: Pre-emergent herbicidal test; conditions: 4 WAT; further: ranges in brackets are in %
# Experimental: as §4, §5, §6, §3
# [28] = test system: Johnsongrass; assay: Pre-emergent herbicidal test; conditions: 4 WAT, 11.2 kg/h; further: ranges in brackets are in %
# Experimental: as §4, §5, §6, §3
# [29] = test system: Barnyardgrass; assay: Pre-emergent herbicidal test; conditions: 4 WAT; further: ranges in brackets are in %
# Experimental: as §4, §5, §6, §3
# [30] = test system: Quackgrass; assay: Pre-emergent herbicidal test; conditions: 4 WAT, 11.2 kg/h; further: ranges in brackets are in %
# Experimental: as §4, §5, §6, §3
# [31] = test system: Velvetleaf; assay: Pre-emergent herbicidal test; conditions: 4 WAT; further: ranges in brackets are in %
# Experimental: as §4, §5, §6, §3
# [32] = test system: Cocklebur; assay: Pre-emergent herbicidal test; conditions: 4 WAT; further: ranges in brackets are in %
# Experimental: as §4, §5, §6, §3
# [33] = test system: Crabgrass; assay: Pre-emergent herbicidal test; conditions: 4 WAT; further: ranges in brackets are in %
# Experimental: as §4, §5, §6
# [34] = test system: Sugarbeet; assay: Pre-emergent herbicidal test; conditions: 4 WAT; further: ranges in brackets are in %
# Experimental: as §4, §5, §6
# [35] = test system: Soybean; assay: Pre-emergent herbicidal test; conditions: 4 WAT; further: ranges in brackets are in %
# Experimental: as §4, §5, §6
# [36] = test system: Wild Buckwheat; assay: Pre-emergent herbicidal test; conditions: 4 WAT; further: ranges in brackets are in %
# Experimental: as §4, §5, §6
# [37] = test system: Hemp Sesbania; assay: Pre-emergent herbicidal test; conditions: 4 WAT; further: ranges in brackets are in %
# Experimental: as §4, §5, §6
# [38] = test system: Panicum Spp.; assay: Pre-emergent herbicidal test; conditions: 4 WAT; further: ranges in brackets are in %
# Experimental: as §4, §5, §6
# [39] = test system: Sorghum; assay: Pre-emergent herbicidal test; conditions: 4 WAT; further: ranges in brackets are in %
# Experimental: as §4, §5, §6
# [40] = test system: Wheat; assay: Pre-emergent herbicidal test; conditions: 4 WAT; further: ranges in brackets are in %
# Experimental: as §4, §5, §6
# [41] = test system: Rice; assay: Pre-emergent herbicidal test; conditions: 4 WAT; further: ranges in brackets are in %
# Experimental: as §4, §5, §6
substance,measurement,setting,value
Ethyl 2-[3-[3-(Trifluoromethyl)Phenyl]-5-Isoxazolyl]Benzoate [Example 4],herbicidal rating,[1]; 1.12 kg/h,0 (0-24)
same,herbicidal rating,[1]; 5.60 kg/h,0 (0-24)
same,herbicidal rating,[1]; 11.2 kg/h,0 (0-24)
same,herbicidal rating,[2],1 (25-49)
same,herbicidal rating,[3]; 1.12 kg/h,2 (50-74)
same,herbicidal rating,[3]; 5.60 kg/h,2 (50-74)
same,herbicidal rating,[3]; 11.2 kg/h,2 (50-74)
same,herbicidal rating,[4]; 1.12 kg/h,1 (25-49)
same,herbicidal rating,[4]; 5.60 kg/h,2 (50-74)
same,herbicidal rating,[4]; 11.2 kg/h,3 (75-99)
same,herbicidal rating,[5],2 (50-74)
same,herbicidal rating,[6]; 1.12 kg/h,2 (50-74)
same,herbicidal rating,[6]; 5.60 kg/h,4 (100)
same,herbicidal rating,[6]; 11.2 kg/h,2 (50-74)
same,herbicidal rating,[7],1 (25-49)
same,herbicidal rating,[8]; 1.12 kg/h,2 (50-74)
same,herbicidal rating,[8]; 5.60 kg/h,3 (75-99)
same,herbicidal rating,[8]; 11.2 kg/h,3 (75-99)
same,herbicidal rating,[9],1 (25-49)
same,herbicidal rating,[10]; 1.12 kg/h,2 (50-74)
same,herbicidal rating,[10]; 5.60 kg/h,1 (25-49)
same,herbicidal rating,[10]; 11.2 kg/h,2 (50-74)
same,herbicidal rating,[11]; 1.12 kg/h,2 (50-74)
same,herbicidal rating,[11]; 5.60 kg/h,2 (50-74)
same,herbicidal rating,[11]; 11.2 kg/h,1 (25-49)
same,herbicidal rating,[12]; 1.12 kg/h,1 (25-49)
same,herbicidal rating,[12]; 5.60 kg/h,2 (50-74)
same,herbicidal rating,[13]; 1.12 kg/h,1 (25-49)
same,herbicidal rating,[13]; 5.60 kg/h,2 (50-74)
same,herbicidal rating,[14]; 1.12 kg/h,2 (50-74)
same,herbicidal rating,[14]; 5.60 kg/h,2 (50-74)
same,herbicidal rating,[15]; 1.12 kg/h,2 (50-74)
same,herbicidal rating,[15]; 5.60 kg/h,2 (50-74)
same,herbicidal rating,[16]; 1.12 kg/h,2 (50-74)
same,herbicidal rating,[16]; 5.60 kg/h,2 (50-74)
same,herbicidal rating,[17]; 1.12 kg/h,0 (0-24)
same,herbicidal rating,[17]; 5.60 kg/h,1 (25-49)
same,herbicidal rating,[18]; 1.12 kg/h,1 (25-49)
same,herbicidal rating,[18]; 5.60 kg/h,2 (50-74)
same,herbicidal rating,[19]; 1.12 kg/h,0 (0-24)
same,herbicidal rating,[19]; 5.60 kg/h,1 (25-49)
same,herbicidal rating,[20]; 1.12 kg/h,1 (25-49)
same,herbicidal rating,[20]; 5.60 kg/h,1 (25-49)
same,Observations,[21],"reduction in stature and ""buggy whipping"" of the leaves"
same,herbicidal rating,[22]; 1.12 kg/h,1 (25-49)
same,herbicidal rating,[22]; 5.60 kg/h,2 (50-74)
same,herbicidal rating,[22]; 11.2 kg/h,2 (50-74)
same,herbicidal rating,[23],0 (0-24)
same,herbicidal rating,[24]; 1.12 kg/h,2 (50-74)
same,herbicidal rating,[24]; 5.60 kg/h,3 (75-100)
same,herbicidal rating,[24]; 11.2 kg/h,2 (50-74)
same,herbicidal rating,[25]; 1.12 kg/h,3 (75-100)
same,herbicidal rating,[25]; 5.60 kg/h,2 (50-74)
same,herbicidal rating,[25]; 11.2 kg/h,2 (50-74)
same,herbicidal rating,[26],2 (50-74)
same,herbicidal rating,[27]; 1.12 kg/h,3 (75-100)
same,herbicidal rating,[27]; 5.60 kg/h,3 (75-100)
same,herbicidal rating,[27]; 11.2 kg/h,2 (50-74)
same,herbicidal rating,[28],0 (0-24)
same,herbicidal rating,[29]; 1.12 kg/h,3 (75-100)
same,herbicidal rating,[29]; 5.60 kg/h,3 (75-100)
same,herbicidal rating,[29]; 11.2 kg/h,3 (75-100)
same,herbicidal rating,[30],2 (50-74)
same,herbicidal rating,[31]; 1.12 kg/h,0 (0-24)
same,herbicidal rating,[31]; 5.60 kg/h,1 (25-49)
same,herbicidal rating,[31]; 11.2 kg/h,2 (50-74)
same,herbicidal rating,[32]; 1.12 kg/h,0 (0-24)
same,herbicidal rating,[32]; 5.60 kg/h,1 (25-49)
same,herbicidal rating,[32]; 11.2 kg/h,1 (25-49)
same,herbicidal rating,[33]; 1.12 kg/h,1 (25-49)
same,herbicidal rating,[33]; 5.60 kg/h,3 (75-100)
same,herbicidal rating,[34]; 1.12 kg/h,1 (25-49)
same,herbicidal rating,[34]; 5.60 kg/h,2 (50-74)
same,herbicidal rating,[35]; 1.12 kg/h,1 (25-49)
same,herbicidal rating,[35]; 5.60 kg/h,3 (75-100)
same,herbicidal rating,[36]; 1.12 kg/h,2 (50-74)
same,herbicidal rating,[36]; 5.60 kg/h,2 (50-74)
same,herbicidal rating,[37]; 1.12 kg/h,1 (25-49)
same,herbicidal rating,[37]; 5.60 kg/h,2 (50-74)
same,herbicidal rating,[38]; 1.12 kg/h,2 (50-74)
same,herbicidal rating,[38]; 5.60 kg/h,3 (75-100)
same,herbicidal rating,[39]; 1.12 kg/h,2 (50-74)
same,herbicidal rating,[39]; 5.60 kg/h,3 (75-100)
same,herbicidal rating,[40]; 1.12 kg/h,0 (0-24)
same,herbicidal rating,[40]; 5.60 kg/h,1 (25-49)
same,herbicidal rating,[41]; 1.12 kg/h,3 (75-100)
same,herbicidal rating,[41]; 5.60 kg/h,3 (75-100)
